Measurements as given in publication PMC10510108, “Studies Pertaining to the Emerging Cannabinoid Hexahydrocannabinol (HHC)” (ACS Chemical Biology, 2023).
Entries after “also recorded” stand apart in the source; their conditions may differ. Read-outs that look alike come from different tables or passages of the source.

Legend:
[1] = biological target: T1, human CB1 cannabinoid receptor (Homo sapiens, UniProt P21554); test: biochemical; assay type: binding; settings: for nH (Hill coefficient) / Top (% inhibition of control specific binding): SI; for nH (Hill coefficient): competition curve fit; for Top (% inhibition of control specific binding): four parameter curve fit
T1 construct: host or cells: Chem-1 cells
T1 sequence (P21554 whole entry): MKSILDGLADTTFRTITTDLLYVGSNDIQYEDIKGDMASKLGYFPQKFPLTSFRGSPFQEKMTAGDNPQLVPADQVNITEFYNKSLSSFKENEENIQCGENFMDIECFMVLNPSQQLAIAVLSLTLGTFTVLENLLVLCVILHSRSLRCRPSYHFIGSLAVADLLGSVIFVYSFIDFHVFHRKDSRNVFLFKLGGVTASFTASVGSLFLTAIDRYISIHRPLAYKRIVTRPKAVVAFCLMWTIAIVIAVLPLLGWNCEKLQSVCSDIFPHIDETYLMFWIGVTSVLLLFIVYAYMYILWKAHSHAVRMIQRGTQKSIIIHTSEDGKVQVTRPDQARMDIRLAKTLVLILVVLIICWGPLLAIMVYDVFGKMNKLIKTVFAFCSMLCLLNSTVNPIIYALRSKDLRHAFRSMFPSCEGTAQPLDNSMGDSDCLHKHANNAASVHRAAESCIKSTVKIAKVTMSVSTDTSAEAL

[2] = biological target: T2, human CB2 cannabinoid receptor (Homo sapiens, UniProt P34972); test: biochemical; assay type: binding; settings: for nH (Hill coefficient): competition curve fit; for Top (% inhibition of control specific binding): four parameter curve fit
T2 construct: host or cells: CHO cells
T2 sequence (P34972 whole entry): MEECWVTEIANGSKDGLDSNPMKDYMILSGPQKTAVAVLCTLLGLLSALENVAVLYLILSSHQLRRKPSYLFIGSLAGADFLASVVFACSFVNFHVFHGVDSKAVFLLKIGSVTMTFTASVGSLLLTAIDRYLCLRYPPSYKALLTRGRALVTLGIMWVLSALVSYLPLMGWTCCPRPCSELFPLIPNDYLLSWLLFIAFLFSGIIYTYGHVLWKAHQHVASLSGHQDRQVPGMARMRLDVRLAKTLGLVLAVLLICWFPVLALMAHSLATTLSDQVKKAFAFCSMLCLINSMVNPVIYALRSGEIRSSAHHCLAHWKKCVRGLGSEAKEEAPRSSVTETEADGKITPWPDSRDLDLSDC

human CB1 receptor = biological target: T3, human CB1 receptor (Homo sapiens, UniProt P21554); test: cell-based; settings: for EC50: cAMP HTRF, transfected CHO cells, two replicate experiments, error = standard deviation
T3 construct: host or cells: CHO cells
T3 sequence (P21554 whole entry): as the sequence (P21554 whole entry) above

human CB2 receptor = biological target: T4, human CB2 receptor (Homo sapiens, UniProt P34972); test: cell-based; settings: for EC50: cAMP HTRF, transfected CHO cells, two replicate experiments, error = standard deviation
T4 construct: host or cells: CHO cells
T4 sequence (P34972 whole entry): as the sequence (P34972 whole entry) above

[3] = [3H]WIN 55212-2 displacement, transfected CHO cell lysate, two replicate experiments, error = standard deviation, read-out: Ki (CB2)

SMILES	% inhibition of control specific binding ([1]; Log[M] –5.48, 1st replicate) [%]	% inhibition of control specific binding ([1]; Log[M] –5.48, 2nd replicate) [%]	% inhibition of control specific binding ([1]; Log[M] –6.43, 1st replicate) [%]	% inhibition of control specific binding ([1]; Log[M] –6.43, 2nd replicate) [%]	% inhibition of control specific binding ([1]; Log[M] –6.91, 1st replicate) [%]	% inhibition of control specific binding ([1]; Log[M] –6.91, 2nd replicate) [%]	% inhibition of control specific binding ([1]; Log[M] –7.39, 1st replicate)	% inhibition of control specific binding ([2]; Log[M] –5.48, 1st replicate) [%]	% inhibition of control specific binding ([2]; Log[M] –5.48, 2nd replicate) [%]	% inhibition of control specific binding ([2]; Log[M] –6.43, 1st replicate) [%]	% inhibition of control specific binding ([2]; Log[M] –6.43, 2nd replicate) [%]	% inhibition of control specific binding ([2]; Log[M] –6.91, 1st replicate) [%]	% inhibition of control specific binding ([2]; Log[M] –6.91, 2nd replicate) [%]	% inhibition of control specific binding ([2]; Log[M] –7.39, 1st replicate) [%]	% inhibition of control specific binding ([2]; Log[M] –7.39, 2nd replicate) [%]	% inhibition of control specific binding ([2]; Log[M] –7.86, 1st replicate) [%]	% inhibition of control specific binding ([2]; Log[M] –7.86, 2nd replicate) [%]	nH (Hill coefficient) ([2]; SI)	Top (% inhibition of control specific binding) ([2]; SI)	agonist character at CB2 (human CB2 receptor; functional assay)	also measured
CCCCCc1cc(O)c2c(c1)OC(C)(C)[C@@H]1CC[C@@H](C)C[C@@H]21 [4a, (9R)-HHC]	112.10	113.60	95.20	100.00	82.50	83.30	50.10%	98.00	97.20	96.90	93.60	86.90	84.70	64.90	67.50	47.90	41.40	1.1	99	partial agonists; also recorded: partial CB1 and CB2 receptor agonist activity	Ki [1]: 15 nM; % inhibition of control specific binding ([1]; Log[M] –7.39, 2nd replicate): 52.90%; % inhibition of control specific binding ([1]; Log[M] –7.86, 1st replicate): 27.40%; % inhibition of control specific binding ([1]; Log[M] –7.86, 2nd replicate): 29.00%; nH (Hill coefficient) [1]: 1.1; Top (% inhibition of control specific binding) [1]: 111; selectivity for CB2 (radioligand binding) [2]: 1.2 x; Ki [2, 3]: 13 nM; selectivity for CB1 (functional assay) (human CB1 receptor): 1.8 x; EC50 (human CB1 receptor): 3.4 nM; agonist character at CB1 (human CB1 receptor; functional assay): partial agonists; also recorded: partial CB1 and CB2 receptor agonist activity; increase in potency compared to 4b, CB1 (human CB1 receptor; functional assay): 17 fold; selectivity for CB2 (functional activity) (human CB2 receptor): 0.55 x; EC50 (human CB2 receptor): 6.2 nM; increase in potency compared to 4b, CB2 (human CB2 receptor; functional assay): 9 fold
CCCCCc1cc(O)c2c(c1)OC(C)(C)[C@@H]1CC[C@H](C)C[C@@H]21 [4b, (9S)-HHC]	88.80	95.80	35.70	35.70	8.70	5.50	–4.50%	88.30	88.00	62.60	61.40	41.60	41.40	15.80	16.00	4.40	6.70	0.7	102	partial agonists; also recorded: partial CB1 and CB2 receptor agonist activity	% inhibition of control specific binding ([1]; Log[M] –7.39, 2nd replicate): 0.20%; % inhibition of control specific binding ([1]; Log[M] –7.86, 1st replicate): –9.00%; % inhibition of control specific binding ([1]; Log[M] –7.86, 2nd replicate): –6.10%; nH (Hill coefficient) [1]: 1.1; Top (% inhibition of control specific binding) [1]: 106; Ki ([1]; [3H]CP 55940 displacement, transfected Chem-1 cell lysate, two replicate experiments, error = standard deviation, read-out: Ki (CB1)): 176 nM; Ki ([2]; SI, curve fitted to mean replicate values, Cheng Prusoff, read-out: Ki): 110 nM; Ki [2, 3]: 105 nM; selectivity for CB2 (radioligand binding) ([2]; from Ki at CB1 and CB2): 1.7 x; selectivity for CB1 (functional assay) (human CB1 receptor; CB1 versus CB2, from EC50): no significant selectivity; EC50 (human CB1 receptor): 57 nM; agonist character at CB1 (human CB1 receptor; functional assay): partial agonists; also recorded: partial CB1 and CB2 receptor agonist activity; EC50 (human CB2 receptor): 56 nM; selectivity for CB2 (functional activity) (human CB2 receptor; from EC50 at CB1 and CB2): 1.0 x
CCCCCc1cc(O)c2c(c1)OC(C)(C)[C@@H]1CCC(C)=C[C@@H]21 [compound 1, Δ^9-trans-tetrahydrocannabinol, reference compound]								97.00	96.20	98.10	98.20	88.60	89.90	74.30	67.60	50.30	51.20	1.0	100	partial agonists; also recorded: partial CB1 and CB2 receptor agonist activity	
